The values that follow come from patent US8119690B2, “Polyunsaturated fatty acid monoglycerides, derivatives, and uses thereof” (Centre de Recherche sur les Biotechnologies Marines, priority 2007, dated 2012).

As usually defined, the inhibition is the share of the control response that was lost under treatment.

For data set [1] the following is noted: human, in vivo.
Procedure: Controlled amount of boiled pasta was eaten after the 4 h time point. An initial blood sample (400 μl) was collected using a lancet at a fingertip into heparin tubes followed by samples at 1, 2, 3, 4, 5, 6, 7 and 8 hour after ingestion. Plasma was separated and immediately analysed for fatty acid composition.
The relative bioavailability of fatty acids from composition 2 compared to fish oil is calculated with the formula:
The AUC (calculates area under the curve for concentration vs. time data) is calculated using linear trapezoidal rule. […] The relative bioavailability of compound 1 and compound 5 is calculated with the same formula:
In another data set the test system is TNF-α. The experiment in a line: LPS-induced TNF-α release by THP-1 monocyte cells (ELISA). Conditions: THP-1 cells, 100 ng/ml LPS, 4 hours; vehicle gives 400 pg/ml; composition 3 10 μg/ml, curcumin 5 μg/ml. Type of data set: cell-based, human. On the procedure:
Composition 3 (comprising compounds 1 (11%) and 5 (89%)) at final concentration of 10 μg/ml, curcumin (5 μg/ml) and a 1:1 mixture of composition 3 (10 μg/ml) and curcumin (5 μg/ml) in DMSO (1%) was used for the in vitro assay. Composition 3 prepared according to the same procedure as previously described in Example 2)
The in vitro assay allows evaluation of the potential anti-inflammatory effects of compounds on the induced-release of pro-inflammatory mediator by monocyte cells. Typical human monocyte THP-1 cells, involved in inflammatory processes, are used in this assay. Measurement of pro-inflammatory mediator TNF-α is performed by ELISA (manufactured by R&D Systems) with artificial induction of pro-inflammatory agents by LPS (E. Coli O55:B5) during 4 hours. Known anti-inflammatory agent dexametazone was used as positive control.
In general terms: In an ELISA, binding on a coated surface is turned into a signal by an enzyme label.

Data set [2] deals with PC-3 human prostate cancer cell line. The experiment in a line: in vitro cell viability assay (SRB), PC-3. Type of data set: cell-based. Conditions: PC-3, at 294 μg/ml, 72 hours, read-out: growth inhibition. On the procedure:
(§1) The cell viability assay is performed to measure the relative cell viability status of cancer cells upon exposure to test compounds in comparison to a positive control (etoposide) and a negative control (vehicule). Adherent cells growing in 96-well plates are exposed to test compounds for 3 days (72 hours). […] Test compounds (composition 1 comprising compounds 1, 5 and 6) as well as positive and negative controls were tested in parallel on the same culture plate. All conditions are tested in triplicate. […] Inhibition of 50% of cell growth compared to basal condition is the lower limit indicating a positive biological response (considered as a hit). After the incubation time, total protein content is quantified following staining with the anionic dye sulforhodamine B (SRB). The detection of […], is completed by a microplate reader. […] The amount of […] is directly proportional to the number of living cells in culture. […] Cells were trypsinized using 0.25% trypsine (w/v)/0.53 mM EDTA solution (Hyclone), counted and plated at densities between 1000 and 3000 cells per well in flat bottom 96-well clear plates (Becton Dickinson) in 100 μl of appropriate culture medium supplemented with fetal bovine serum (Hyclone). […] Absorbance was read at 515 nm using a 96-well plate Multiskan Spectrum […] (Thermo Electron Corporation). […]

The test system of data set [3] is A-549 human lung cancer cell line. The experiment in a line: in vitro cell viability assay (SRB), A-549. Type of data set: cell-based. Conditions: A549, A-549, at 294 μg/ml, 72 hours, read-out: growth inhibition. On the procedure:
as §1

Data set [4] has as its system BT-549 human breast cancer cell line. As to the kind of experiment: in vitro cell viability assay (SRB), BT-549. The class given is cell-based. Conditions: BT-549, at 294 μg/ml, 72 hours, read-out: growth inhibition. Here is the method: as §1
Data set [5] relates to HCT-15 human colon cancer cell line. The experiment in a line: in vitro cell viability assay (SRB), HCT-15. Type of data set: cell-based. To be noted: HCT-15, at 294 μg/ml, 72 hours, read-out: growth inhibition. Here is the method:
as §1

Molecules are shown by their SMILES.

`CC/C=C\C/C=C\C/C=C\C/C=C\C/C=C\CCCCCC(=O)OCC(O)CO` (stereo not shown) [compound 1]: the “relative bioavailability compared to compound 5” value in data set [1] turned out to be 2.20. On to `COc1cc(/C=C/C(=O)CC(=O)/C=C/c2ccc(O)c(OC)c2)ccc1O` [curcumin], for which the TNF-α measured in the data set with TNF-α turned out to be 100 pg/mL.

`C[C@@H]1C[C@H]2[C@@H]3CCC4=CC(=O)C=C[C@]4(C)[C@@]3(F)[C@@H](O)C[C@]2(C)[C@@]1(O)C(=O)CO` [dexametazone]: the TNF-α measured in the data set on TNF-α came to 125 pg/mL. Take `COc1cc([C@@H]2c3cc4c(cc3[C@@H](O[C@@H]3O[C@@H]5CO[C@@H](C)O[C@H]5[C@H](O)[C@H]3O)[C@H]3COC(=O)[C@H]23)OCO4)cc(OC)c1O` [etoposide]: the inhibition at 294 µg/mL in data set [2], in data set [3], in data set [4] and in data set [5] was 100% each time.
